The target in one data set is T1, HpoR (Ms5860) (Mycolicibacterium smegmatis, UniProt A0R4J9).
T1 sequence (A0R4J9 1-199): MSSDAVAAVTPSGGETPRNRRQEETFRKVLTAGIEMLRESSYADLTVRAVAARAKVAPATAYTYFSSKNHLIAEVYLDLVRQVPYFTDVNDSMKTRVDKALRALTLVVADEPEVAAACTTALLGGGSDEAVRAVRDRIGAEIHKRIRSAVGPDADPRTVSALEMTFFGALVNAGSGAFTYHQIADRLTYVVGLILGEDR
The data set is described as follows: isothermal titration calorimetry. It counts as binding. Background: ITC needs no label: the signal is the heat of the interaction.

The target in data set [1] is Mtb HpoR (Rv0767c); HpoRMtb (Mycobacterium tuberculosis, UniProt P9WMD7).
Mtb HpoR (Rv0767c); HpoRMtb, sequence (P9WMD7 whole entry): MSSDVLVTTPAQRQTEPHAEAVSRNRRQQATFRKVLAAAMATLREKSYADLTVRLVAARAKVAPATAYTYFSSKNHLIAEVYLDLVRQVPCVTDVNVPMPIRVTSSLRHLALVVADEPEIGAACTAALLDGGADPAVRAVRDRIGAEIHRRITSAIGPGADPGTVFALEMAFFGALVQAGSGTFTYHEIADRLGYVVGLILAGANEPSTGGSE
The subject of data set [2] is HpoR (HpoRMS) (Mycobacterium smegmatis mc2 155). The data set is described as follows: SPR. Background: Surface plasmon resonance follows binding to a sensor surface in real time, without labels.

The text below walks through data of publication PMC5909442 (Nucleic Acids Research, 2018).

Take `Nc1nc2c(ncn2[C@@H]2O[C@@H]3COP(=O)(O)O[C@H]4[C@@H](O)[C@H](n5cnc6c(=O)[nH]c(N)nc65)O[C@@H]4COP(=O)(O)O[C@H]3[C@H]2O)c(=O)[nH]1` [c-di-GMP]: the equilibrium dissociation constant (Kd) at HpoR (Ms5860) was 1780 ± 230 nM. Also, the “UV cross-linking with radiolabelled ligand, SDS-PAGE autoradiography” value in data set [1] is “Mtb HpoR (Rv0767c) showed a good binding ability for c-di-GMP”. Ms5860p, biotin-labeled displayed a binding signal in data set [2] of 150 RU.

The Kd is the free concentration of one partner at which half of the binding sites on the other are occupied at equilibrium, for simple one-to-one binding. Low values mean a tighter complex, high ones a looser complex.
